Results as given in patent US6825348B2, “Antiviral compounds” (Academia Sinica, priority 2002, dated 2004).

Molecular target: PRPP synthetase (UniProt P0A717)
Test: PRPP synthetase reaction, conversion to diphosphates and inhibition of AMP phosphorylation
Format: biochemical
Experimental: Enzymatic Conversion of Acyclic Nucleoside Phosphonates and Nucleotide 5′-Monophosphate Analog to Their Antivirally Active Diphosphates (Triphosphate Equivalents). Substrate affinities of acyclic nucleoside phosphonates 4, 20, 21, and dinucleotide analog 24 for PRPP synthetase as well as their inhibitory effect against the enzyme were evaluated according to the established procedures. See, e.g., Balzarini et al. (1991) J. Biol. Chem. 266: 8686-8689 and references cited therein. The assays were then terminated after 4 h by the addition of MeOH. HPLC on an anion-exchange Partisphere column was used to analyze the formation of […] 21pp, PMEApp, 4pp, 20pp, and 24pp.

[1] = conversion to diphosphate by PRPP synthetase

| Compound | substrate affinity for PRPP synthetase, times less than that of PMEA 4 [times] | Vmax [1] [μmol/unit/h] | Vmax (phosphorylation by PRPP synthetase, no unit in text) |
| --- | --- | --- | --- |
| Nc1ncnc2ncn(CCOCP(=O)(O)O)c12 [Compound 20, 7-[2-(Phosphonomethoxy)ethyl]adenine] | 4 | 0.013 |  |
| Nc1ncnc2c1ncn2CCOCP(=O)(O)O [PMEA 4, 9-[2-(phosphonomethoxy)ethyl]adenine, reference compound] |  | 0.096 |  |
| Nc1ncnc2c1ncn2[C@@H]1O[C@H](COP(=O)(O)O)[C@@H](O)[C@H]1O [AMP 21, adenosine 5′-monophosphate, reference compound] |  | 14.270 | 14 |
